{
  "source": "patent US4181717A",
  "about": "“Ovulation enhancing peptides” (Research Corporation, priority 1978, dated 1980)",
  "system": "hamsters",
  "assay": "Ovulation enhancement study in hamsters (ova count after 4 days of subcutaneous dosing)",
  "assay_type": "in vivo",
  "details": "ova counted on fifth day, untreated control mean 11.3",
  "method": "In one study carried out with hamsters utilizing H--Thr--Arg--Lys--Arg--OH diacetate, each of six animals was injected subcutaneously at various dosage levels as indicated in the Table for each of the four days of the estrous cycle. On the fifth day, the animals were sacrificed, the left and right ovaries and oviducts of each animal collected, sectioned, stained, and the ova counted. The figures given in the second column are the mean numbers of ova for six animals at each dosage level. In a control group of 20 animals which were not treated with the ovulation enhancing compound, the mean number of ova counted under similar conditions was 11.3.",
  "note": "Residues, ends and D or L forms follow the SMILES beside them.",
  "data": [
    {"smiles": "C[C@@H](O)[C@H](N)C(=O)N[C@@H](CCCNC(=N)N)C(=O)N[C@@H](CCCCN)C(=O)N[C@@H](CCCNC(=N)N)C(=O)O", "note": "[H--Thr--Arg--Lys--Arg--OH diacetate, H--Thr--Arg--Lys--Arg--OH] (H-TRKR-OH)", "values": [
      {"measurement": "Number of OVA (mean number of ova for six animals)", "setting": "0.10 μgm/100 gm/day on each of the four days of the estrous cycle", "value": 13.7},
      {"measurement": "Number of OVA (mean number of ova for six animals)", "setting": "0.30 μgm/100 gm/day on each of the four days of the estrous cycle", "value": 14.1},
      {"measurement": "Number of OVA (mean number of ova for six animals)", "setting": "3.00 μgm/100 gm/day on each of the four days of the estrous cycle", "value": 15.5},
      {"measurement": "Number of OVA (mean number of ova for six animals)", "setting": "30.00 μgm/100 gm/day on each of the four days of the estrous cycle", "value": 15.6}
    ]}
  ]
}
